Data published in patent US8158577B2, “Modulation of cartilage homeostasis by active domains of cell binding extracellular matrix molecules” (priority 2004, dated 2012).

What was measured:
K105 cells = experiment: Adhesion of K105 cells to chondroadherin in the presence of synthetic peptide (FIG. 3, 5A-5B, 13); format: cell-based, human; settings: 1 hour at 37° C.
Description: Human cells (K9) originating from a human chondrosarcoma were a kind gift from Drs. Sven Inerot and Anders Lindahl, The Salgrenska University Hospital Gothenburg, Sweden. The K9 cells were cultured in Dulbeccos Modified Eagle Medium: Nutrient Mixture F12 (DMEM/F12 1:1) with GLUTAMAX I, supplemented with 10% fetal calf serum, 25 μg/ml ascorbic acid, 50 IU of penicillin and 50 μg/ml streptomycin (Life Technologies, Inc.). A different human cells line (K105) originating from a human chondrosarcoma was a kind gift from Dr. Sven Inerot, The Salgrenska University Hospital, Gothenburg, Sweden. The K105 cells were cultured in a mix of 40% Dulbeccos Modified Eagle Medium, 40% Minimum Essential Media (MEM) alpha Medium, 10% Nutrient Mixture F1 supplemented with 100 nM hydrocortisone, 100 ng/ml insulin, 10% fetal calf serum, 25 μg/ml ascorbic acid, 50 IU of penicillin and 50 μg/ml streptomycin (Life Technologies, Inc.). To harvest cells, culture dishes were rinsed three times with Ca^2+/Mg^2+-free PBS and the cells were incubated with 0.5% trypsin and 1 mM EDTA for 5 min. Detached cells were suspended in PBS containing 1 mg/ml trypsin inhibitor (Sigma) and then washed in PBS. To remove membrane-bound collagens the cells were treated with collagenase 100 U/ml (CLSPA; Worthington Biochemical Corp., Lakewood, N.J.) in PBS, 30 min. 37° C. and then washed in PBS.
Tissue culture 48-wells dishes (Nunclon, Nunc, Denmark) were coated overnight with 5 μg/ml chondroadherin in 4M Guanidine-HCl, 50 mM sodium acetate, pH 5.8, or for native protein in PBS. Alternatively coating was with 5 μg/ml collagen type II in PBS followed by after-coating with 0.5% BSA in PBS for 3 hours. Collagen type II was isolated from bovine nasal cartilage by pepsin digestion (11). Bacterially expressed chondroadherin was isolated as described above. Recombinant chondroadherin expressed in EBNA cell was cloned and purified as described elsewhere (8).
To test cell binding, the chondrosarcoma cells or bovine chondrocytes were suspended in PBS containing 0.1% BSA, 25 U/ml collagenase and added to the wells (50,000/well), in the absence or presence of various peptide pools or the synthetic peptides (200, 100, 50, 25, 12.5 μg/ml). Non-adherent cells were removed after 1 hour and adhesion was determined by measuring lysosomal N-acetylglucosaminidase (12). Adhesion and spreading was visualized by light microscopy. In the time studies, k105 cells were allowed to adhere for 30 minutes, unbound cells were removed and medium without serum supplemented with or without peptides (250 μg/ml), β1 integrin antibody (clone P4C10, Gibco BRL), EDTA (5 mM) was added. Cell morphology was visualized by light microscopy after 1, 3 and 20 hours.
Study design: Tissue culture dishes (48-wells) were coated with 5 μg/ml chondroadherin expressed in E. coli and blocked for non-specific binding with BSA. […] were suspended in PBS containing 0.1% BSA, 25 U/ml collagenase and added to the wells (50,000/well) in the presence of synthetic peptide to be tested and allowed to adhere for 1 hour at 37° C. Nonadherent cells were removed by washing, and adhesion was determined by analyzing lysosomal hexosaminidase.
A 12-mer peptide (1947.01) plus an N-terminal cysteine (CQLRGLRRWLEAK) (SEQ ID NO. 3) representing the candidate sequence identified by mass spectrometry were synthesized and its ability to inhibit cell adhesion was determined. Tissue culture dishes were coated with 5 μg/ml chondroadherin expressed in E. coli and blocked for non-specific binding with BSA. The cells were suspended in PBS containing 0.1% BSA, 25 U/ml collagenase and added to the wells (50,000/well) in the presence of synthetic peptide (200, 100, 50, 25, 12.5 μg/ml) and allowed to adhere for 1 hour at 37° C. Nonadherent cells were removed by washing, and adhesion was determined by analyzing lysosomal hexosaminidase. […]

[1] = test system: IL-1 stimulated cartilage; experiment: NO release in IL-1 stimulated cartilage explants (Griess reaction); format: cell-based, bovine; settings: 400 uM peptide, IL-1a 10 ng/ml
Description: The following experiments measure the effect of a peptide on NO release in IL-1 stimulated cartilage.
Study design: A skinned bovine nose (from cows 18-24 months old) was collected at Hörby slaughter house (Team Ugglarp, Sweden). The septum inside the nose was cut out and the mucosa and the perichondrium was removed before the cartilage was placed in PBS with PEST (100 IU penicillin, 100 μg/ml streptomycin) and 2.5 μg/ml Fungizone (all from Invitrogen, Sweden) for 2 hours at room temperature.
Two mm pieces were punched out of the cartilage. Each piece was placed in a 24-well cell culture plate (Falcon, Sweden) containing 1 ml cell culture medium, HAMs F12 (Invitrogen, Sweden) supplemented with 10 μg/ml BSA, […] (both from Sigma, Sweden), PEST (100 IU penicillin, […]) and 2.5 μg/ml Fungizone. After 24 hours, the medium was changed and the cartilage pieces were stimulated with human recombinant IL-1a, 10 ng/ml (Roche, Sweden). The peptides where tested in triplet at 20 and 400 μM. The cartilage tissue was incubated for another six days, mediums were exchanged every third day. On each occasion the media were collected for measurement of NO (Griess reaction).

[2] = test system: IL-1 stimulated synoviocytes; experiment: IL-6 release in IL-1 stimulated synoviocytes (ELISA); format: cell-based, rat; settings: 50-400 μM peptide, IL-1a 50 ng/ml, 72 hour
Description: The following experiments measure the IL-6 release in IL-1 stimulated synoviocytes.
Study design: From rats with antigen induced arthritis, the hyperproliferative synovium, pannus, was taken from the inflamed knee day four after disease onset. The pannus tissue was cut to small pieces in PBS with PEST (100 IU penicillin, 100 μg/ml streptomycin) and Fungizone (2.5 μg/ml)(all from InVitrogen, Sweden), before incubation in collagenase (400 U/ml, Worthington, USA) for 3 hours at 37° C., 5% CO2. Cells were centrifugated (8 min., room temperature, 1100 rpm.) and suspended in RPMI 1640 supplemented with 10% FCS (InVitrogen, Sweden), PEST and Fungizone and seeded in a 25 cm^2 flask at 37° C., 5% CO2. The following day, cells were rinsed once with medium and further incubated. When confluent, cells were trypsinated for 1 min (0.25% Trypsin with EDTA, InVitrogen, Sweden) counted and seeded in 96 well plates, 10000 cells/well/200 μl.
After 24 hours, the medium was changed and the cells were stimulated with human recombinant IL-1a, 50 ng/ml (Roche, Sweden). The peptide to be investigated was tested in triplets in the concentration interval 50-400 μM. After 72 hour incubation at 37° C., 5% CO2, the medium was collected for measurement of NO (Griess reaction) and IL-6 was analyzed by an ELISA, according to the manufacturer's instructions (BD Biosciences, USA).

[3] = test system: m-BSA antigen induced monoarthritis in rat; experiment: In vivo antigen induced arthritis, knee-joint swelling; settings: intra-articular, twice daily
Description: The following model experiment measure the effect of the investigated compound on knee-joint swelling using antigen induced arthritis.
The effect of locally administered test compound, 400 mM given twice daily, on the development of arthritis in m-BSA antigen induced monoarthritis in rat was evaluated. Animals treated with saline or Methotrexate (in clinically relevant dose) were used as controls.
Study design: Female Dark Agouti rats, weighing approximately 150 g (B&K breeding center, Denmark) were used. The animals were sensitised intradermally at the tail root with 1 mg mBSA (Sigma A-1009) dissolved in […] and emulsified in […] complete adjuvant (Sigma F 5881). Ten days later the rats were shaved (left knee) and challenged with an intraarticular (i.a) injection of […]. Test compounds were administered intra-articular (left knee) in […] four hours before challenge and thereafter twice daily. The development of arthritis (knee diameters) was registered with an odimeter/calliper. The procedures were carried out under a brief Enflurane anaesthesia. The animals were sacrificed at day 4 after challenge/first treatment.

## H-[CQLRGLRRWLEAKASRPDATC]-OH (H-CQLRGLRRWLEAKASRPDATC-OH; also: cyclised (brackets), bond type not given here) [SEQ ID No. 9]
K105 cells
  inhibitory effect on K105 cell adhesion to chondroadherin (Example II, FIG. 13): inhibitory effect
[1]
  NO-release from IL-1 stimulated cartilage explants: decrease
[2]
  IL-6-release from IL-1 stimulated synoviocytes: decrease
[3]
  disease-ameliorating effect compared with methotrexate: in the same magnitude as methotrexate treatment
[3]; 4 days
  knee-joint swelling compared with saline treated animals: decreased
